# Assay: Inhibition of platelet-activating factor receptor binding activity in dog platelets using [3H]-PAF as radioligand.
row,IC50 [µM],Structure (SMILES)
1,0.7,O=C(NCCCCc1cccnc1)c1ccc(-c2cccc(OC3=CC=CC=CC3)c2)cc1

# Assay: as above
# Remark: another data set of the same source
row,Structure (SMILES),IC50 [µM]
1,CCCc1cc(C(=O)N[C@H](C)CCCc2cccnc2)ccc1-c1ccc(OC)c(OC)c1,0.05
2,C[C@H](CCCc1cccnc1)NC(=O)c1ccc(-c2ccccc2)c(-c2ccccc2)c1,0.05
3,C=CCc1cc(C(=O)N[C@H](C)CCCc2cccnc2)ccc1-c1ccc(OC)c(OC)c1,0.08
4,COc1ccc(-c2ccc(C(=O)N[C@H](C)CCCc3cccnc3)cc2Br)cc1OC,0.18
5,COc1ccc(-c2ccc(C(=S)N[C@H](C)CCCc3cccnc3)cc2)cc1OC,0.06
6,COc1ccc(-c2ccc(C(=O)N[C@H](C)CCCc3cccnc3)cc2[N+](=O)[O-])cc1OC,0.2
7,COc1cccc(-c2ccc(C(=O)N[C@H](C)CCCc3cccnc3)cc2)c1,0.02
8,O=C(NCCCCc1cccnc1)c1ccc(-c2cccc(F)c2)c(F)c1,2.1
9,CCc1cc(C(=O)N[C@H](C)CCCc2cccnc2)ccc1-c1ccc(OC)c(OC)c1,0.004

# Second part, the compound after the results:
row,IC50 [µM],Structure (SMILES)
1,0.3,O=C(NCCCCc1cccnc1)c1ccc(-c2cccc(O)c2)cc1
2,0.28,COc1cccc(-c2ccc(C(=O)NCCCCc3cccnc3)cc2)c1
3,0.2,COc1ccc(-c2ccc(C(=O)NCCCCc3cccnc3)cc2[N+](=O)[O-])cc1OC
4,0.125,COc1ccc(-c2ccc(C(=O)NCCCCc3cccnc3)cc2-c2ccc(OC)cc2)cc1
5,0.2,Cc1ccc(-c2ccc(C(=O)NCCCCc3cccnc3)cc2)cc1C
6,0.22,COc1ccc(-c2ccc(C(=O)NCCCCc3cccnc3)cc2Br)cc1OC
7,0.4,COc1ccc(-c2ccc(C(=O)NCCCCc3cccnc3)cc2)cc1OC
8,0.3,COc1ccc(-c2ccc(C(=O)NCCCCc3cccnc3)cc2OC)cc1OC
9,0.5,Cc1cccc(-c2ccc(C(=O)NCCCCc3cccnc3)cc2)c1

# From BindingDB's records for doi:10.1021/jm00128a025 (Roche Research Center, 1989)
